In one data set the test system is rats. The conditions noted are these: pregnant rats treated with folic acid concomitantly to ethanol administration; cited from earlier work.
The test system of data set [1] is embryonic hippocampal cultures. The conditions noted are these: against 400-2400 mg/dl of ethanol treatment; cited from earlier work.
In data set [2] the test system is Pax6, Otx2, Sox2, Sox3, NCAM, Vent1. The experiment in a line: RT-PCR of neural markers (animal caps or embryos). Type of data set: cell-based, Xenopus laevis. An excerpt:
RT-PCR Animal caps were dissected from embryos at stage 8.5 and cultured in 67% Leibovitz's L-15 medium, pH 7.5 in the presence or absence of varied concentration of alcohol until stage 22. Total RNA was extracted from cultured animal caps with Trizol reagent (Invitrogen). Primer sets and PCR conditions for NCAM and Pax6 have been described in our previous reports (Peng, Neurobiol. Dis., 2004; Peng, J. Mol. Biol., 2004). PCR products were subject to electrophoresis on TBE gel and visualized by ethidium bromide staining.
Animal cap explant assay. […] Total RNA was extracted from animal caps or whole embryos using TRIZOL reagent (Invitrogen). The total RNA was reverse transcribed using the Superscript system (Invitrogen), and the first strand cDNA of the target gene amplified by PCR.
The Xenopus animal cap is composed of pluripotent cells that can be induced to form neural, mesodermal, or epidermal tissue, and is a useful tissue to assess the activity of various factors on neural development. Animal caps were treated with varied concentrations of alcohol as indicated.

In data set [3] the test system is alcohol-induced ROS production. The experiment in a line: ROS measurement (hydrogen peroxide level in embryos). The conditions noted are these: vitamin C pretreatment 2 hours before 0.6% ethanol. Type of data set: in vivo, Xenopus laevis. On the procedure:
(A) Embryos were pretreated with or without vitamin C two hours before alcohol treatment (0.6%, 12 h, from stage 13 to 22). The embryos were harvested at stage 22 and the hydrogen peroxide level measured by the colorimetric quantitation of hydrogen peroxide method (total hydroperoxides), according to the protocols provided by the manufacturer (BIOXYTECH H202-560 kit, OXIS International, Inc., USA); (B) The NF-κB mediated transcriptional activity was measured using NF-κB luciferase reporter plasmid (pLuc-NF-κB) containing IL-6 promoter region with four repeats of NF-κB binding sites.
ROS measurement. […] At the end of the experiment, embryos were harvested and total ROS content was determined by the calorimetric quantitation of hydrogen peroxide method (total hydroperoxides), following protocols provided by the manufacturer (BIOXYTECH H202-560 kit, OXIS International, Inc. USA).

In another data set the test system is Xenopus laevis embryos. The conditions noted are these: for Alive / dead: 15 embryos; for Body length / Eye distance: mean ± SD. On the procedure:
Morphological measurements of microcephaly and growth retardation.
Vitamin C treatment. Embryos at stage 13 (initial neural plate stage) were collected and divided into groups, each containing 15-20 embryos and incubated in a plastic petri dish containing MMR medium as stated above. Vitamin C, having a concentration of 100 μM, was added either concomitantly, 2 hours before, or 2 hours after the initiation of a 12-hour alcohol exposure. The tadpoles were fixed and measurements were made as stated above.

Data set [4] deals with Xenopus laevis tadpole brain. The data set is described as follows: Histological analysis of brain injury (coronal brain sections of tadpoles). An excerpt:
Histological analysis of brain injury. Embryos were fixed in 2% paraformaldehyde, dehydrated, embedded in paraffin. The embryos were sectioned coronally through the head and stained with hematoxylin and eosin.
The EF-1α transcript was detected as an internal control for equal RNA load.

Where [5] appears, read: 100 μM VitC 2 hours after start of 12-hour 0.6% EtOH (Post-VitC).
[6] abbreviates: 100 μM VitC 2 hours before 12-hour 0.6% EtOH (Pre-VitC).
[7] abbreviates: 100 μM VitC concomitantly with 12-hour 0.6% EtOH.

The source of these data is patent US20060037085A1, “Animal model for fetal alcohol syndrome and methods of treatment” (priority 2004, published 2006).

Where two headings read alike, the source gives them in different places. Marks after values point to notes of the source that are not given here.

On to `Nc1nc2ncc(CNc3ccc(C(=O)N[C@@H](CCC(=O)O)C(=O)O)cc3)nc2c(=O)[nH]1` [folic acid], for which the “amount of ethanol-mediated oxidative stress” value in the data set on rats is “mitigated”.
On to Vitamin E, for which, in data set [1], the “protection of embryonic hippocampal cultures” value is “protected”.
On to `CC1=C(/C=C/C(C)=C/C=C/C(C)=C/C=C/C=C(C)/C=C/C=C(C)/C=C/C2=C(C)CCCC2(C)C)C(C)(C)CCC1` [β-carotene], for which, in data set [1], the “protection of embryonic hippocampal cultures” value is listed as “protected”.
Turning to `OO` [H2O2, hydrogen peroxide], in data set [2] (animal caps treated with 100 M of H2O2 instead of alcohol), the “expression of Pax6, Otx2, Sox2, Sox3, and NCAM” value is on record as “reduced the expression”.
For `O=C1O[C@H]([C@@H](O)CO)C(O)=C1O` [VitC, ascorbic acid], the “ethanol-induced hydrogen peroxide level” value in data set [3] is recorded as “suppressed”. In the data set on Xenopus laevis embryos (setting [5]), the Alive amounted to 14, the dead came out at 1, the Body length is given as 9.60 ± 013^b mm and the Eye distance is 1.82 ± 004^b mm. In addition, in the data set on Xenopus laevis embryos (setting [6]), the Alive amounted to 14, the dead turned out to be 1, the Body length was 11.88 ± 006^a mm and the Eye distance is 2.13 ± 002^a mm. In the data set with Xenopus laevis embryos (setting [7]), the Alive was 14, the dead came out at 1, the Body length is 10.19 ± 014^a mm and the Eye distance was 1.88 ± 003^a,b mm. In addition, the dead in the data set with Xenopus laevis embryos (VitC alone, 100 μM, no ethanol) was 1. Also, the “severity of alcohol-induced microencephaly and growth retardation” value in the data set on Xenopus laevis embryos (pretreating embryos with 100 μM vitamin C) is “significantly reduced the severity”. Also, the “expression of NCAM and Pax6 (RT-PCR)” value in data set [2] (ethanol treated embryos, vitamin C pretreatment) was “restored significantly”. Besides, the “forebrain areas, histology at stage 45” value in data set [4] (vitamin C 2 hours before addition of alcohol) is “significant restoration of the forebrain areas”. Also, in data set [4] (vitamin C concomitantly with alcohol), the “width of the canal in diencephalon areas” value is recorded as “could not narrow down the canal”.
